Tests used:
Type in all cases: biochemical, Chromobacterium violaceum
L-Trp 2',3'-oxidase [1] = test: Conversion of Trp in proteins by L-Trp 2',3'-oxidase in 24 hours; settings: standard conditions, E/S ≈ 1/1000, values given as a guide
Method: (*): Values given as a guide, giving an idea of the conversion of Trp in
the proteins in 24 hours, under the standard conditions defined in Exampl
As specified above, the accessibility of the tryptophanyl residues, both with respect to the indolyl ring and with respect to the Cα and Cβ protons, plays a major role.

L-Trp 2',3'-oxidase [2] = test: Specificity of the reaction (conversion of amino acid derivatives and indole compounds); settings: for effect of conversion of substrates with free α-amino group on the enzyme: after a few minutes, absorbance at 320 nm rises then decreases
Excerpt: No conversion could be observed for the aromatic amino acids: N-acetyl-L-phenylalaninamide and N-acetyl-L-tyrosinamide. The same is the case when the indole ring is substituted: 5-hydroxyl L-Trp, N-formyl L-Trp and for the isomers of the D series: D-tryptophan and N-acetyl-D-tryptophan.
This phenomenon is much more rapid when the α-carboxyl functional group is not substituted (L-Trp, comp. I), and results in the formation of an unstable imine (II) which is hydrolysed to give rise to the α-keto compounds (indole-3-pyruvic acid (III) and its amide homologue respectively)--FIG. 6--. It is therefore preferable to block the α-amino functional group so as to avoid any isomerisation phenomenon and to ensure greater stability of the dehydro compound.

L-Trp 2',3'-oxidase [3] = test: Kinetics of dehydrogenation of substrates by purified L-Trp 2',3'-oxidase (appearance of dehydro product at 330 nm); settings: substrate of L-Trp 2',3'-oxidase, in the presence of catalase
Method: Measurements of the specific activity of the enzyme as well as all the kinetic experiments in the steady state, were performed under the standard conditions defined below:
Substrate: 1 mMN-acetyl-L-tryptophanamide (NATA)
Buffer: 50 mM succinate, pH 5.5
by directly monitoring the appearance of the dehydro product at 330 nm (FIG. 3). The specific activity (As) of fraction Q1 is calculated on the basis of a molar extinction coefficient at 330 nm of 18.8 mM^-1.cm^-1 determined in the laboratory (against ε330 =19.89 mM^-1.cm^-1 in the literature; TAKAI et al. mentioned above). NATA, which represents the smallest peptide chain possible, is used as reference substrate for the enzymatic reaction. The specific activity of the preparation (As) is estimated at 39.5±3.1 units for NATA (an enzymatic unit represents a mole of product formed per second per mole of heme).
The dehydrogenation of NATA was monitored as a function of the pH (pH 3-5, 6-8) at a temperature of 30° C. in 50 mM succinate buffer, pH 5.6. The reaction products are analysed and purified by reversed-phase HPLC and then freeze-dried and analysed by mass spectrometry (desorption by chemical ionisation: DCI). ΔNATA is the only product of the enzymatic reaction which is characterised by HPLC (single peak, γmax 333 nm) and by mass spectrophotometry (MH^+ =244).
The procedure is as in Example 1.7).
All the reactions were performed in the presence of catalase. In each case, the kinetic constants (Kcat and Km) are calculated so as to evaluate the efficiency of the enzyme for each type of substrate.

Molecule: β-Lactoglobulin: protein substrate, 162 residues, Trp19-Trp51, 32 kDa
- conversion of Trp in the proteins (L-Trp 2',3'-oxidase [1]): 2 % of conversion

Molecule: NC(=O)[C@@H](N)Cc1c[nH]c2ccccc12 [L-tryptophanamide]
- effect of conversion of substrates with free α-amino group on the enzyme (L-Trp 2',3'-oxidase [2]): complete inhibition of the enzyme

Molecule: O=CN[C@@H](Cc1c[nH]c2ccccc12)C(=O)O [N-formyl L-Trp]
- conversion by the enzyme (specificity of the reaction) (L-Trp 2',3'-oxidase [2]): No conversion

Molecule: CC(=O)N[C@H](Cc1c[nH]c2ccccc12)C(=O)O [N-acetyl-D-tryptophan]
- conversion by the enzyme (specificity of the reaction) (L-Trp 2',3'-oxidase [2]): No conversion

Molecule: CSCC[C@H](NC(=O)[C@H](Cc1c[nH]c2ccccc12)NC(=O)CCNC(=O)OC(C)(C)C)C(=O)N[C@@H](CC(=O)O)C(=O)N[C@@H](Cc1ccccc1)C(N)=O [Pentagastrin]
- Kcat/Km (L-Trp 2',3'-oxidase [3]): 10^6 M^-1.s^-1
- Kcat (L-Trp 2',3'-oxidase [3]; 30° C., 50 mM succinate buffer): 32 s⁻¹
- Km (L-Trp 2',3'-oxidase [3]; 30° C., 50 mM succinate buffer): 26 µM

Molecule: NCCc1c[nH]c2ccccc12 [tryptamine]
- conversion by the enzyme (specificity of the reaction) (L-Trp 2',3'-oxidase [2]): no reaction

Molecule: N[C@@H](Cc1c[nH]c2ccccc12)C(=O)O [L-tryptophan]
- effect of conversion of substrates with free α-amino group on the enzyme (L-Trp 2',3'-oxidase [2]): complete inhibition of the enzyme

Molecule: N[C@H](Cc1c[nH]c2ccccc12)C(=O)O [D-tryptophan]
- conversion by the enzyme (specificity of the reaction) (L-Trp 2',3'-oxidase [2]): No conversion

Molecule: O=C(O)CCc1c[nH]c2ccccc12 [indole-3-propionic acid]
- conversion by the enzyme (specificity of the reaction) (L-Trp 2',3'-oxidase [2]): oxidised to indole-3-acrylic acid

Molecule: N[C@@H](Cc1c[nH]c2ccc(O)cc12)C(=O)O [5-hydroxyl L-Trp]
- conversion by the enzyme (specificity of the reaction) (L-Trp 2',3'-oxidase [2]): No conversion

B1: Catalase: protein substrate, 506 residues, six Trp, 232 kDa (EC 1.11.1.6) (protein, UniProt P00432 2-527, looked up)
Catalase: ADNRDPASDQMKHWKEQRAAQKPDVLTTGGGNPVGDKLNSLTVGPRGPLLVQDVVFTDEMAHFDRERIPERVVHAKGAGAFGYFEVTHDITRYSKAKVFEHIGKRTPIAVRFSTVAGESGSADTVRDPRGFAVKFYTEDGNWDLVGNNTPIFFIRDALLFPSFIHSQKRNPQTHLKDPDMVWDFWSLRPESLHQVSFLFSDRGIPDGHRHMNGYGSHTFKLVNANGEAVYCKFHYKTDQGIKNLSVEDAARLAHEDPDYGLRDLFNAIATGNYPSWTLYIQVMTFSEAEIFPFNPFDLTKVWPHGDYPLIPVGKLVLNRNPVNYFAEVEQLAFDPSNMPPGIEPSPDKMLQGRLFAYPDTHRHRLGPNYLQIPVNCPYRARVANYQRDGPMCMMDNQGGAPNYYPNSFSAPEHQPSALEHRTHFSGDVQRFNSANDDNVTQVRTFYLKVLNEEQRKRLCENIAGHLKDAQLFIQKKAVKNFSDVHPEYGSRIQALLDKYNEEKPKNAVHTYVQHGSHLSAREKANL
- conversion of Trp in the proteins (L-Trp 2',3'-oxidase [1]): 12 % of conversion
